Experimental data: patent US20100075907A1, “NEUROMEDIN U RECEPTOR AGONISTS AND USES THEREOF” (priority 2006, published 2010)
Non-standard residues stand in square brackets, D forms with d. Residues, ends and D or L forms follow the SMILES beside them. No end group written: not given here. *: point of attachment. Succinimide(1-Et,3-yl) = CCN1C(=O)CC(*)C1=O; hArg = N=C(N)NCCCC[C@H](N)C(=O)O; dNle = CCCC[C@@H](N)C(=O)O

Molecular target: T1, hNMUR1 (Homo sapiens, UniProt Q9HB89)
T1 sequence (Q9HB89 1-426): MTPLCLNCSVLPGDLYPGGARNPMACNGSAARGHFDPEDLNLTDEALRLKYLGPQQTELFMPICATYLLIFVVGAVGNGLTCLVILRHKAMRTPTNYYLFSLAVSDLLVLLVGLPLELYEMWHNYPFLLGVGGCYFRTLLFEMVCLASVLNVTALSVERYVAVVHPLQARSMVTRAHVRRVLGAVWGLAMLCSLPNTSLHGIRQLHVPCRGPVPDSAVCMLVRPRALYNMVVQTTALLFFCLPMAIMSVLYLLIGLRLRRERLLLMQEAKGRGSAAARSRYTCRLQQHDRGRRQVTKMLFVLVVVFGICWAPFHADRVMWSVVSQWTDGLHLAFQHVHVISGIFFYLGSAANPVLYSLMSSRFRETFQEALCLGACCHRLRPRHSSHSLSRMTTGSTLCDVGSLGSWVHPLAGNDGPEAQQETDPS
Experiment: 125I-hNMU-25 binding assay, human NMUR1 membranes
Parameters: expressed in transfected cells; host or cells: HEK-293 FLP-In cells (pcDNA5); HEK-293/aeq17 lines (pIRES-puro) were also made; % inhibition of NMU-25 binding / % Activity: concentration or dose not given beside the values
Method: Confluent cell monolayers expressing NMU receptors (the HEK cells described above) were harvested with phosphate buffered saline, collected by centrifugation, and resuspended in membrane buffer (50 mM TrisCl pH 7.4, 5 mM MgCl2, 1× Protease Inhibitor Cocktail, 10 μM phosphoramidon). After the cell pellet was homogenized, the solution was centrifuged at 18,000 rpm for 20 minutes at 4° C. The pellet was resuspended in membrane buffer to yield a final concentration of 0.5-5 μg/μL of membrane and stored at −80° C.
Experiments were performed in assay buffer (25 mM TrisCl, pH 7.4, 10 mM MgCl2, 2 mM EDTA, 1× Protease Inhibitor Cocktail, 100 μg/mL Bacitricin, 10 μM phosphoramidon) in 200 μL volumes in a 96-well format using 2-5 μg of membrane and 0.1 nM ^125I-hNMU-25 (about 12,000 cpm/well). For non-specific binding, 1 μM hNMU-25 was added. About 5 μL of peptides were added to measure antagonist activity, and the entire reaction was incubated at room temperature with shaking for 80 minutes. The reaction was terminated by rapid filtration through 0.3% poly-ethylenimine presoaked Millipore 96-well filter plates and washed with ice-cold buffer (5 mM TrisCl pH 7.4, 10 mM MgCl2, 2.5 mM EDTA, 0.04% Triton X-100). Plates were air-dried overnight at room temperature and recovered radioactivity was determined by standard scintillation counting. IC50 values were determined using GraphPad Prism software.
Concentration-response curves and radioligand-binding data were fitted using Prism (GraphPad Software). Results are summarized below in Tables 8 and 9.

Row | Compound | % Activity (Table 8, HEK-hR1, binding) [%] | % Activity (Table 9, HEK-hR1, binding) [%] | IC50 (Table 9, HEK-hR1, binding) [nM] | other results
1 | CC(C)C[C@@H](NC(=O)[C@H](Cc1ccccc1)NC(=O)[C@@H](N)Cc1ccc(O)cc1)C(=O)N[C@@H](Cc1c[nH]c2ccccc12)C(=O)N[C@@H](CCCNC(=N)N)C(=O)N1CCC[C@H]1C(=O)N[C@@H](CCCNC(=N)N)C(=O)N[C@@H](CC(N)=O)C(N)=O [Agonist B, YF-(D-L)-WRPRN-CONH2] (H-YF[dL]WRPRN-NH2) | 96 |  |  | 
2 | C[C@@H](NC(=O)[C@H](Cc1ccccc1)NC(=O)[C@@H](N)Cc1ccc(O)cc1)C(=O)N[C@@H](Cc1c[nH]c2ccccc12)C(=O)N[C@@H](CCCNC(=N)N)C(=O)N1CCC[C@H]1C(=O)N[C@@H](CCCNC(=N)N)C(=O)N[C@@H](CC(N)=O)C(N)=O [Agonist D, YF-(D-A)-WRPRN-CONH2] (H-YF[dA]WRPRN-NH2; N-terminus assumed) | 100 |  |  | 
3 | CC(=O)N[C@@H](Cc1ccccc1)C(=O)N[C@H](CC(C)C)C(=O)N[C@@H](Cc1c[nH]c2ccccc12)C(=O)N[C@@H](CCCNC(=N)N)C(=O)N1CCC[C@H]1C(=O)N[C@@H](CCCNC(=N)N)C(=O)N[C@@H](CC(N)=O)C(N)=O [Agonist E, Ac-F-(D-L)-WRPRN-CONH2] (Ac-F[dL]WRPRN-NH2) | 93 |  |  | 
4 | CC(C)C[C@@H](NC(=O)[C@H](Cc1ccccc1)NC(=O)[C@H](Cc1ccc(O)cc1)NC(=O)CNC(=O)[C@H](CCCNC(=N)N)NC(=O)[C@H](CO)NC(=O)[C@H](CCC(N)=O)NC(=O)[C@H](CO)NC(=O)[C@H](C)NC(=O)[C@H](Cc1ccccc1)NC(=O)[C@@H]1CCCN1C(=O)[C@H](CO)NC(=O)[C@H](CCC(N)=O)NC(=O)[C@H](Cc1ccccc1)NC(=O)[C@H](CCC(=O)O)NC(=O)[C@H](CCC(=O)O)NC(=O)[C@H](CC(=O)O)NC(=O)[C@@H](NC(=O)[C@H](CCCNC(=N)N)NC(=O)[C@@H](N)Cc1ccccc1)C(C)C)C(=O)N[C@@H](Cc1c[nH]c2ccccc12)C(=O)N[C@@H](CCCNC(=N)N)C(=O)N1CCC[C@H]1C(=O)N[C@@H](CCCNC(=N)N)C(=O)N[C@@H](CC(N)=O)C(N)=O [Agonist H] (H-FRVDEEFQSPFASQSRGYF[dL]WRPRN-NH2; N-terminus assumed) | 93 |  |  | IC50 (binding, human R1): 1.1 nM; % inhibition of NMU-25 binding (human R1): 93%
5 | CC(C)C[C@H](NC(=O)[C@H](Cc1c[nH]c2ccccc12)NC(=O)[C@@H](N)Cc1ccccc1)C(=O)N[C@@H](Cc1ccccc1)C(=O)N[C@@H](CCCNC(=N)N)C(=O)N1CCC[C@H]1C(=O)N[C@@H](CCCCNC(=N)N)C(=O)N[C@@H](CC(N)=O)C(N)=O [Agonist I, FWLFRP-(Harg)-N-CONH2] (H-FWLFRP[hArg]N-NH2) |  | 23 | > 1000 | 
6 | CC(C)C[C@H](NC(=O)[C@H](Cc1c[nH]c2ccccc12)NC(=O)[C@@H](N)Cc1ccccc1)C(=O)N[C@@H](Cc1ccccc1)C(=O)N[C@@H](CCCNC(=N)N)C(=O)N[C@@H](C)C(=O)N[C@@H](CCCCNC(=N)N)C(=O)N[C@@H](CC(N)=O)C(N)=O [Agonist J, FWLFRA-(Harg)-N-CONH2] (H-FWLFRA[hArg]N-NH2) |  | 34 | > 1000 | 
7 | CCCC[C@@H](NC(=O)[C@H](CCCNC(=N)N)NC(=O)[C@H](C)NC(=O)[C@H](CCCNC(=N)N)NC(=O)[C@H](Cc1ccccc1)NC(=O)[C@H](CC(C)C)NC(=O)[C@H](Cc1ccccc1)NC(=O)[C@@H](N)Cc1c[nH]c2ccccc12)C(N)=O [Agonist K, WFLFRAR-(D-Nle)-CONH2] (H-WFLFRAR[dNle]-NH2) |  | 25 | > 1000 | 
8 | CC(C)C[C@H](NC(=O)[C@H](Cc1c[nH]c2ccccc12)NC(=O)[C@H](Cc1ccccc1)NC(=O)CNC(=O)[C@H](CCCNC(=N)N)NC(=O)[C@H](CO)NC(=O)[C@H](CCC(N)=O)NC(=O)[C@H](CO)NC(=O)[C@H](C)NC(=O)[C@H](Cc1ccccc1)NC(=O)[C@@H]1CCCN1C(=O)[C@H](CO)NC(=O)[C@H](CCC(N)=O)NC(=O)[C@H](Cc1ccccc1)NC(=O)[C@H](CCC(=O)O)NC(=O)[C@H](CCC(=O)O)NC(=O)[C@H](CC(=O)O)NC(=O)[C@@H](NC(=O)[C@H](CCCNC(=N)N)NC(=O)[C@@H](N)Cc1ccccc1)C(C)C)C(=O)N[C@@H](Cc1ccccc1)C(=O)N[C@@H](CCCNC(=N)N)C(=O)N1CCC[C@H]1C(=O)N[C@@H](CCCCNC(=N)N)C(=O)N[C@@H](CC(N)=O)C(N)=O [Agonist O] (H-FRVDEEFQSPFASQSRGFWLFRP[hArg]N-NH2; N-terminus assumed) |  | 64 | 400 | 
9 | CC(C)C[C@H](NC(=O)[C@H](Cc1c[nH]c2ccccc12)NC(=O)[C@H](Cc1ccccc1)NC(=O)CNC(=O)[C@H](CCCNC(=N)N)NC(=O)[C@H](CO)NC(=O)[C@H](CCC(N)=O)NC(=O)[C@H](CO)NC(=O)[C@H](C)NC(=O)[C@H](Cc1ccccc1)NC(=O)[C@@H]1CCCN1C(=O)[C@H](CO)NC(=O)[C@H](CCC(N)=O)NC(=O)[C@H](Cc1ccccc1)NC(=O)[C@H](CCC(=O)O)NC(=O)[C@H](CCC(=O)O)NC(=O)[C@H](CC(=O)O)NC(=O)[C@@H](NC(=O)[C@H](CCCNC(=N)N)NC(=O)[C@@H](N)Cc1ccccc1)C(C)C)C(=O)N[C@@H](Cc1ccccc1)C(=O)N[C@@H](CCCNC(=N)N)C(=O)N[C@@H](C)C(=O)N[C@@H](CCCCNC(=N)N)C(=O)N[C@@H](CC(N)=O)C(N)=O [Agonist P] (H-FRVDEEFQSPFASQSRGFWLFRA[hArg]N-NH2; N-terminus assumed) |  | 1 | > 1000 | 
10 | CCCC[C@@H](NC(=O)[C@H](CCCNC(=N)N)NC(=O)[C@@H]1CCCN1C(=O)[C@H](CCCNC(=N)N)NC(=O)[C@H](Cc1ccccc1)NC(=O)[C@H](CC(C)C)NC(=O)[C@H](Cc1c[nH]c2ccccc12)NC(=O)[C@H](Cc1ccccc1)NC(=O)CNC(=O)[C@H](CCCNC(=N)N)NC(=O)[C@H](CO)NC(=O)[C@H](CCC(N)=O)NC(=O)[C@H](CO)NC(=O)[C@H](C)NC(=O)[C@H](Cc1ccccc1)NC(=O)[C@@H]1CCCN1C(=O)[C@H](CO)NC(=O)[C@H](CCC(N)=O)NC(=O)[C@H](Cc1ccccc1)NC(=O)[C@H](CCC(=O)O)NC(=O)[C@H](CCC(=O)O)NC(=O)[C@H](CC(=O)O)NC(=O)[C@@H](NC(=O)[C@H](CCCNC(=N)N)NC(=O)[C@@H](N)Cc1ccccc1)C(C)C)C(N)=O [Agonist Q] (H-FRVDEEFQSPFASQSRGFWLFRPR[dNle]-NH2) |  | 16 | > 1000 | 
11 | CCN1C(=O)CC(SC[C@H](NC(C)=O)C(=O)N[C@@H](Cc2ccccc2)C(=O)N[C@@H](CCCNC(=N)N)C(=O)N[C@H](C(=O)N[C@@H](CC(=O)O)C(=O)N[C@@H](CCC(=O)O)C(=O)N[C@@H](CCC(=O)O)C(=O)N[C@@H](Cc2ccccc2)C(=O)N[C@@H](CCC(N)=O)C(=O)N[C@@H](CO)C(=O)N2CCC[C@H]2C(=O)N[C@@H](Cc2ccccc2)C(=O)N[C@@H](C)C(=O)N[C@@H](CO)C(=O)N[C@@H](CCC(N)=O)C(=O)N[C@@H](CO)C(=O)N[C@@H](CCCNC(=N)N)C(=O)NCC(=O)N[C@@H](Cc2ccc(O)cc2)C(=O)N[C@@H](Cc2ccccc2)C(=O)N[C@H](C)C(=O)N[C@@H](Cc2c[nH]c3ccccc23)C(=O)N[C@@H](CCCNC(=N)N)C(=O)N2CCC[C@H]2C(=O)N[C@@H](CCCNC(=N)N)C(=O)N[C@@H](CC(N)=O)C(N)=O)C(C)C)C1=O (stereo partly drawn) [NMU13] (Ac-C(Succinimide(1-Et,3-yl))FRVDEEFQSPFASQSRGYF[dA]WRPRN-NH2) |  |  |  | % inhibition of NMU-25 binding (human R1): 100%
12 | CC(C)C[C@H](NC(=O)[C@H](Cc1ccccc1)NC(=O)[C@@H](N)Cc1ccc(O)cc1)C(=O)N[C@@H](Cc1ccccc1)C(=O)N[C@@H](CCCNC(=N)N)C(=O)N1CCC[C@H]1C(=O)N[C@@H](CCCNC(=N)N)C(=O)N[C@@H](CC(N)=O)C(N)=O [NMU-8, reference compound] |  | 100 |  | 
13 | Ac-FFRPRN-NH2 [Agonist F, Ac-FFRPRN-CONH2] | 30 |  |  | IC50 (Table 8, HEK-hR1, second (binding) column pair): > 1000 nM
14 | FALFRPRN-NH2 [Agonist N] |  | 38.4 | > 1000 | 
15 | H-FRVDEEFQSPFASQSRGYFLFRPRN-NH2 [hNMU-25, reference compound] |  | 100 |  | IC50 (binding, human R1): 0.14 nM
16 | H-FRVDEEFQSPFASQSRGYFWRPRN-NH2 [Agonist G] | 97 |  |  | 
